Entries after “also recorded” stand apart in the source; their conditions may differ.
Key:
[1] = test system: primary bone marrow CD34+ HSPCs of healthy donors; experiment: Granulocytic liquid culture differentiation (LCD) of healthy donor CD34+ HSPCs; format: cell-based, human; conditions: for neutrophil count, morphological examination of cytospin preparations: day 14
Description: (§1) CD34+ cells were seeded in a 24-well plate at a density of 2×10^5 cells/ml. […] Medium was exchanged every second day. On day 7, cells were plated in RPMI 1640 GlutaMAX supplemented with 10% FBS, 1% penicillin/streptomycin and 10 ng/ml G-CSF. On day 14, cells were analyzed by flow cytometry using following mouse anti-human antibodies: CD34 (BD, #348811), CD33 (BioLegend, #303416), CD45 (BioLegend, #304036), CD11b (BD, #557754), CD15 (BD, #555402), CD66b (BioLegend, #305114), CD16 (BD, #561248).

[2] = test system: primary bone marrow CD34+ HSPCs of ELANE-CN, HAX1-CN, JAGN1-CN and SRP54-CN patients; experiment: Granulocytic liquid culture differentiation (LCD) of CN patient CD34+ HSPCs; format: cell-based, human; conditions: all CN patients
Description: as §1

[3] = test system: primary bone marrow CD34+ HSPCs of healthy donors; experiment: CFU assay of primary bone marrow CD34+ HSPCs of healthy donors; format: cell-based, human; conditions: 40 nM, compared to DMSO control
Source text: FIG. 3A. […] Data represent means±SD from two independent experiments. **P<0.01.

HSPCs (CD41: gfp+ cells) = experiment: Zebrafish in vivo model, number of HSPCs in tg(CD41:gfp) embryos; conditions: up to 10 µM, two days, compared to DMSO-treated controls
Description: (§2) Zebrafish transgenic lines and wild type were maintained according to standard protocols and handled in accordance with European Union animal protection directive 2010/63/EU. The maintenance was approved by the local government (Tierschutzgesetz § 11, Abs. 1, Nr. 1, husbandry permit 35/9185.46/Uni TÜ). All the experiments were performed in zebrafish embryos under 5 days post fertilization. In this study the inventors used two transgenic (tg) reporter lines, tg(mpo: gfp), where neutrophils express gfp and tg(CD41:gfp),where HSPCs express gfp, both described in the art.
(§3) To generate the jagn1b and hax1 mutants two different approaches were used, CRISPR/Cas9-mediated knock-out and morpholino-based knock down, respectively. On the one hand, to interfere with the function of jagn1b, jagn1b-targeting sgRNA and Cas9 protein RNPs (Alt-R S.p. Cas9 nuclease, v.3, IDT) were injected into the blastomere of 1-cell stage tg (mpo: gfp) embryos, as described in the art. On the other hand, to interfere with hax1 function 1 mM hax1-specific morpholino (GeneTool) was injected into 1-cell stage tg (mpo: gfp) embryos as previously described in the art. […] After two days of treatment, the number of mpo:gfp^+ or CD41:gfp^+ cells where quantified using a Nikon stereo-fluorescent SMZ18 microscope.

[4] = test system: hax1-knock-down zebrafish mutant embryos (hax1 MO); experiment: Zebrafish hax1 knock-down neutropenia model, number of neutrophils; format: in vivo; conditions: two days treatment
Description: as §2, §3

[5] = test system: in vitro generated neutrophils; experiment: Annexin V apoptosis assay on in vitro generated neutrophils; format: cell-based, human; conditions: day 13 of LCD, four healthy donors
[6] = test system: in vitro generated neutrophils; experiment: Reactive oxygen species (ROS) assay of in vitro generated neutrophils; format: cell-based, human; conditions: differentiated in the presence of 40 nM flavopiridol
[7] = test system: primary bone marrow CD34+ HSPCs of ELANE-CN, HAX1-CN, JAGN1-CN and SRP54-CN patients; experiment: CFU assay of primary bone marrow CD34+ HSPCs of CN patients; format: cell-based, human; conditions: two ELANE-CN, one HAX1-CN, one SRP54-CN patient, 40 nM
Source text: FIG. 4A. […] Data represent means±SD from two independent experiments. *P<0.05, **P<0.01.

ELANE-CN iPSCs = experiment: Colony-forming unit (CFU) assay of CD34+ cells from EB-based CN-iPSC culture; format: cell-based, human
Description: Colony-forming unit (CFU) assay of CD34^+ cells harvested from EB-based CN-iPSC culture on day 14 of differentiation treated with eleven short listed small molecules.
EB-Based Hematopoietic Differentiation of iPSCs iPSCs were cultured on SNL feeder cells for 24 hours and then dissociated using PBS/EDTA (0.02%) for 5 min. EB generation was performed by centrifugation of 2×10^4 cells per EB in 96-well plates using APEL serum-free differentiation medium (Stemcell Technologies) supplemented with bFGF (20 ng/μl) and ROCK Inhibitor (R&D). On day one, BMP4 (40 ng/μl) was added to the culture medium to induce mesodermal differentiation. On day four, EBs were plated on Matrigel-coated 6-well plates (10 EBs/well) in APEL medium supplemented with VEGF (40 ng/μl), SCF (50 ng/μl) and IL-3 (50 ng/μl). For neutrophilic differentiation, the medium was changed 3 days later to fresh APEL medium supplemented with IL3 (50 ng/μl) and G-CSF (50 ng/μl). All cytokines were purchased from R&D Systems if nothing else is indicated. First hematopoietic suspension cells appeared between day 10 and 14. Suspension cells were harvested every 3-4 days and analyzed starting from day 14 to day 32.
The inventors then selected eleven small molecules that could potentially mimic the differentially expressed genes (DEGs) signature between CN and CN-corrected HSPCs and screened the effect of these small molecules on granulopoiesis using their isogenic CN iPSC model.

[8] = test system: CD34+ HSPCs of healthy donors; experiment: RealTime-Glo MT Cell Viability Assay on CD34+ HSPCs; format: cell-based, human; conditions: 40 nM, 48 hours, versus DMSO-treated group
[9] = test system: CD34+ HSPCs of healthy donors; experiment: Annexin V apoptosis assay on CD34+ HSPCs; format: cell-based, human; conditions: 40 nM, 48 hours
[10] = test system: in vitro generated neutrophils; experiment: Chemotaxis assay of in vitro generated neutrophils; format: cell-based, human; conditions: differentiated in the presence of 40 nM flavopiridol
[11] = test system: in vitro generated neutrophils; experiment: RealTime-Glo MT cell viability assay on in vitro generated neutrophils; format: cell-based, human; conditions: day 13 of LCD, four healthy donors
[12] = test system: in vitro generated neutrophils; experiment: Phagocytosis assay of in vitro generated neutrophils; format: cell-based, human; conditions: differentiated in the presence of 40 nM flavopiridol
[13] = test system: jagn1b knock-out zebrafish mutant embryos; experiment: Zebrafish jagn1b knock-out neutropenia model, number of neutrophils; format: in vivo; conditions: two days treatment
Description: as §2, §3

[14] = test system: human primary neutrophils of healthy donor; experiment: RealTime-Glo MT Cell Viability Assay on human primary neutrophils; format: cell-based; conditions: 40 nM, compared with 0.1% DMSO
Source text: The assay measures the reducing potential of viable cells in an ATP-independent manner and the nonlytic nature, high sensitivity and rapid response of the assay make it possible to track the cell viability over time in the same plate. Ficoll-Paque density gradient media (density: 1.077 g/mL) used for isolation of peripheral blood polymononuclear cell (PBPMNs) 1 of healthy donors.

[15] = prior-art clinical trials, used to inhibit CDKs and induce apoptosis in leukemia cells (Gerson et al. 2018); cited from earlier work
[16] = three independent ELANE-CN derived iPSCs, 40 nM flavopiridol

CN1CC[C@H](c2c(O)cc(O)c3c(=O)cc(-c4ccccc4Cl)oc23)[C@H](O)C1 [flavopiridol]
granulopoiesis: numbers of granulocytes (CD45+CD15+CD11b+, CD45+CD15+CD66b+) and mature neutrophils (CD45+CD15+CD16+) ([1]; both healthy donors, 40 nM, 14 days, flow cytometry): significantly enhanced granulopoiesis | neutrophil count, morphological examination of cytospin preparations ([1]; healthy donor one (HD1)): no change | neutrophil count, morphological examination of cytospin preparations ([1]; healthy donor two (HD 2)): a significant increase in neutrophil count | granulopoiesis: numbers of granulocytes and mature neutrophils by flow cytometry ([2]; 40 nM, 14 days): significant restoration of granulopoiesis | granulopoiesis, morphological examination of cytospin preparations ([2]; day 14): significant restoration or restoration trend of granulopoiesis | levels of CFU-G ([3]; healthy donor one (HD1)): significantly elevated levels of CFU-G | levels of CFU-G ([3]; healthy donor two (HD2)): no significant change | total number of HSPCs (CD41: gfp+ cells) (HSPCs (CD41: gfp+ cells)): did not affect | number of neutrophils (mpo: gfp+ cells) [4]: significantly restored the number of neutrophils (mpo: gfp^+ cells) to a similar level to wildtype controls; also recorded: increased to a similar level than the wildtype controls | early apoptotic cells [5]: about 3% | late apoptotic cells [5]: less than 2% | live cells [5]: More than 95% | neutrophil function, reactive oxygen species (ROS) [6]: did not affect neutrophil function | levels of CFU-G [7]: significantly elevated levels of CFU-G in all CN groups | granulopoiesis in CN iPSCs (screening) (ELANE-CN iPSCs; screen of eleven small molecules in isogenic CN iPSC model): markedly restored the granulopoiesis | CFU-macrophages (CFU-Ms) (ELANE-CN iPSCs; [16]): significant decrease | colony-forming unit-granulocytes (CFU-G) (ELANE-CN iPSCs; [16]): significant increase | viability of CD34+ HSPCs [8]: comparable to that of the DMSO-treated group | apoptosis in CD34+ HSPCs [9]: did not induce apoptosis | neutrophil function, chemotaxis [10]: did not affect neutrophil function | levels of viability upon differentiation [11]: improved levels of viability | neutrophil function, phagocytosis [12]: did not affect neutrophil function | number of neutrophils (mpo: gfp+ cells) [13]: significantly restored the number of neutrophils (mpo: gfp^+ cells) to a similar level to wildtype controls; also recorded: restored the number of neutrophils (mpo: gfp^+ cells) to a similar level than the wildtype controls | viability of neutrophils ([14]; 3 hours): No significant difference | viability of neutrophils ([14]; 24 hours): No significant difference | viability of neutrophils ([14]; 48 hours): No significant difference | steady-state blood plasma levels [15]: about 350 nM
